Each structure is given as a SMILES string.

mouse TRPM3α2 (mTRPM3) ion channel, sequence (J9SQF3 other isoform, or with tags, fused parts or gaps): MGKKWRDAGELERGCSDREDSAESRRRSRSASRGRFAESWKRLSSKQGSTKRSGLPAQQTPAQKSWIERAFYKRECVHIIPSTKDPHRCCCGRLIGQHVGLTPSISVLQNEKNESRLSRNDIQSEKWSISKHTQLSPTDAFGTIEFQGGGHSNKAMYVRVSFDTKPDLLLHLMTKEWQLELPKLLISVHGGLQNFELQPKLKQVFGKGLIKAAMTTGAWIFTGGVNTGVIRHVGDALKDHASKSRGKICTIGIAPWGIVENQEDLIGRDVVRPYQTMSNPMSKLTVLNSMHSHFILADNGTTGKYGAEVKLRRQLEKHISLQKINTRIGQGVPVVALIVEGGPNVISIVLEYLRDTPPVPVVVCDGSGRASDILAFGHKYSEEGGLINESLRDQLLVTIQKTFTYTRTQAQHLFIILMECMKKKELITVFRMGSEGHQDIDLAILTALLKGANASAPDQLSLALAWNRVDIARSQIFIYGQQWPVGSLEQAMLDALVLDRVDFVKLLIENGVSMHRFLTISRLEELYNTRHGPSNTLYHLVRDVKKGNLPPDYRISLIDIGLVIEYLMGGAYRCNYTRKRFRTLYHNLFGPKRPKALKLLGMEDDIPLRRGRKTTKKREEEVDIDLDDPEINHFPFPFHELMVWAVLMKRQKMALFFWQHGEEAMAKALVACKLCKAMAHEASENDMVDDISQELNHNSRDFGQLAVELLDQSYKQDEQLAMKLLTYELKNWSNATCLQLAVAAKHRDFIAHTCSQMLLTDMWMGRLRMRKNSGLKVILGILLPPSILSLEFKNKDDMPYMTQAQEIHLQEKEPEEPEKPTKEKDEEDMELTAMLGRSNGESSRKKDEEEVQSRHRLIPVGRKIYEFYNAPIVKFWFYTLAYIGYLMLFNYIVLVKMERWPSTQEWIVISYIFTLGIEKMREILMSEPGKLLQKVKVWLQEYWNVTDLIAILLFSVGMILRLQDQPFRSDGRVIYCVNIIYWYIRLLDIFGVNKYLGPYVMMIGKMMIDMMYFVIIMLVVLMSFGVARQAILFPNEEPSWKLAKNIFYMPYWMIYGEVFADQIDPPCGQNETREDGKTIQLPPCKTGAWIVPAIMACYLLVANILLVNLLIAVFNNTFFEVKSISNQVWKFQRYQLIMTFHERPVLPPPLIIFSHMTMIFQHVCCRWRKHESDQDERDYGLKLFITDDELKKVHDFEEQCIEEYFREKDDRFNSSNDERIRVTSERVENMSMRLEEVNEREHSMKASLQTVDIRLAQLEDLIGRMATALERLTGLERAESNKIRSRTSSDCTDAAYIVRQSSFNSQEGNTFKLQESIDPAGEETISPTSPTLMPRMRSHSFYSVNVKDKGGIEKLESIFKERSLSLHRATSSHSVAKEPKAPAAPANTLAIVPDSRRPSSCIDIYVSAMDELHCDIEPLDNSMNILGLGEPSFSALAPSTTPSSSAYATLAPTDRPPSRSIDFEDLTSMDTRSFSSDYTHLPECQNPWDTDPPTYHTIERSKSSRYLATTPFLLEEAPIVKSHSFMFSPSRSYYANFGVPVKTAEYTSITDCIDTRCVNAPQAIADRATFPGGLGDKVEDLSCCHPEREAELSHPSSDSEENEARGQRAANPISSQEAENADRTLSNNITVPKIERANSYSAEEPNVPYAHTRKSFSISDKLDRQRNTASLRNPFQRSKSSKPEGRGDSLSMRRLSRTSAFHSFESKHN

The first assay deals with mouse TRPM3α2 (mTRPM3) ion channel (Mus musculus (Mouse), UniProt J9SQF3). Nature of the assay: TRPM3 ion channel driven Ca2+ uptake, Fluo-4 AM assay, mTRPM3alpha2 overexpressing flip-in HEK293 cells stimulated with pregnenolone sulfate. It counts as cell-based. Particulars: PS 50 μM, cpds 300-399. How it is done:
Part B Monitoring the TRPM3 Ion Channel Driven Ca^2+ Uptake.
In order to monitor the inhibition of the mouse TRPM3α2 (mTRPM3) ion channel by the compounds of the invention, a cellular system making use of an mTRPM3alpha2 or hTRPM3 overexpressing cell line (flip-in HEK293) was used. The TRPM3 channel was stimulated/opened with Pregnenolone sulfate (PS) (50 μM) which results in Ca^2+ influx.
For mTRPM3, the intracellular Ca^2+ was measured with a Calcium responsive dye. Fluor-4 AM ester (Invitrogen). Cells were cultured until a confluence of 80-90%, washed with Versene (Invitrogen) and detached from the surface by a short incubation with 0.05% Trypsin (Invitrogen). The trypsination process was stopped by the addition of complete cell culture medium (DMEM, glutamax, 10% FCS,NEAA,Pen-Strep). Cells were collected and resuspended in Krebs buffer without Calcium at RT.
Prior the cell seeding (±2000 cells/well into a black, 384 well plate (Greiner)) the diluted compound was added in the assay plate, together with the PS dissolved in Krebs buffer containing Calcium. […] Directly after cell addition the plates were read on an Envision fluorescence reader (Perkin Elmer) by an Excitation of 485 nm and emission at 535 nm.
Channel inhibition was calculated compared to a non-PS stimulated control versus a condition stimulated with PS (50 μM) with vehicle. The ability of the compounds of the invention to inhibit this activity was determined as: Percentage inhibition=[1-((RFU determined for sample with test compound present—RFU determined for sample with positive control inhibitor) divided by (RFU determined in the presence of vehicle—RFU determined for sample with positive control inhibitor))]*100.
Broadly, the IC50 is the midpoint of a concentration-inhibition curve. High values mean lower potency, low ones higher potency. The compound `Cc1oc2ccc(OCc3ccnn3CC(F)F)cc2c1C(=O)NC1(CO)CCCNC1=O` (single isomer, unassigned) [332-En 1, 5-((1-(2,2-difluoroethyl)-1H-pyrazol-5-yl)methoxy)-N-(3-(hydroxymethyl)-2-oxopiperidin-3-yl)-2-methylbenzofuran-3-carboxamide] returned a concentration for half-maximal inhibition (IC50) of less than 1 µM.

Staying with this assay, now noted: PS (50 μM) stimulated, cpd 001-199.
`Cc1ncsc1COc1ccc2oc(C)c(C(=O)NC3CCN(CC(F)(F)F)C3)c2c1` (single isomer, unassigned) [116-En 1, 2-methyl-5-((4-methylthiazol-5-yl)methoxy)-N-(1-(2,2,2-trifluoroethyl)pyrrolidin-3-yl)benzofuran-3-carboxamide] registered an IC50 of less than 1 µM.

In turn, `Cc1oc2ccc(OCc3cccnc3C(F)(F)F)cc2c1C(=O)NC1CCN(CCO)C1=O` (single isomer, unassigned) [120-En 1, N-(1-(2-hydroxyethyl)-2-oxopyrrolidin-3-yl)-2-methyl-5-((2 (trifluoromethyl)pyridin-3-yl)methoxy)benzofuran-3-carboxamide] gave an IC50 of less than 1 µM.

Compound `Cc1ncsc1COc1ccc2oc(C)c(C(=O)NC3(CCO)CCOC3)c2c1` (single isomer, unassigned) [121-En 1, N-(3-(2-hydroxyethyl)tetrahydrofuran-3-yl)-2-methyl-5-((4-methylthiazol-5-yl)methoxy)benzo-furan-3-carboxamide] displayed a half-maximal inhibitory concentration (IC50) of less than 1 µM.

Regarding `Cc1oc2ccc(OCc3cccnc3C(F)(F)F)cc2c1C(=O)NC1CN(C)CC1(F)F` (single isomer, unassigned) [124-En 1, N-(4,4-difluoro-1-methylpyrrolidin-3-yl)-2-methyl-5-((2-(trifluoromethyl)pyridin-3-yl)methoxy) -benzofuran-3-carboxamide], the IC50 is less than 1 µM.

Turning to `Cc1oc2ccc(OCc3cccnc3C(F)(F)F)cc2c1C(=O)NC1COCC1O` (single isomer, unassigned) [147-Dia 1-En 1, N-(4-hydroxytetrahydrofuran-3-yl)-2-methyl-5-((2-(trifluoromethyl)pyridin-3-yl)methoxy) -benzofuran-3-carboxamide], the IC50 is less than 1 µM.

Consider `Cc1oc2ccc(OCc3cccnc3C(F)(F)F)cc2c1C(=O)NC1COCC1O` (single isomer, unassigned) [147-Dia 1-En 2, N-(4-hydroxytetrahydrofuran-3-yl)-2-methyl-5-((2-(trifluoromethyl)pyridin-3-yl)methoxy) -benzofuran-3-carboxamide], for which the concentration for half-maximal inhibition (IC50) was less than 1 µM.

Compound `Cc1oc2ccc(OCc3cccnc3C(F)(F)F)cc2c1C(=O)NC1CCN(CC(F)(F)F)C1` (single isomer, unassigned) [149-En 1, 2-methyl-N-(1-(2,2,2-trifluoroethyl)pyrrolidin-3-yl)-5-((2-(trifluoromethyl)pyridin-3-yl)methoxy) -benzofuran-3-carboxamide] came in with an IC50 of less than 1 µM.

As to `Cc1oc2ccc(OCc3cccnc3C(F)(F)F)cc2c1C(=O)NC1CN(CC(F)(F)F)CC1(F)F` (single isomer, unassigned) [157-En 1, N-(4,4-difluoro-1-(2,2,2-trifluoroethyl)pyrrolidin-3-yl)-2-methyl-5-((2-(trifluoromethyl)pyridin-3-yl)methoxy)benzofuran-3-carboxamide], the IC50 is less than 1 µM.

As to `Cc1ncsc1COc1ccc2oc(C)c(C(=O)NC3CCN(CCO)C3=O)c2c1` (single isomer, unassigned) [160-En 1, N-(1-(2-hydroxyethyl)-2-oxopyrrolidin-3-yl)-2-methyl-5-((4-methylthiazol-5-yl)methoxy)benzo-furan-3-carboxamide], the IC50 was less than 1 µM.

The compound `Cc1ncsc1COc1ccc2oc(C)c(C(=O)NC3CN(C(=O)OCC(F)(F)F)CC3(F)F)c2c1` (single isomer, unassigned) [172-En 1, 2,2,2-trifluoroethyl 3,3-difluoro-4-(2-methyl-5-((4-methylthiazol-5-yl)methoxy)benzofuran-3-carboxamido)pyrrolidine-1-carboxylate] had an IC50 of less than 1 µM.

In turn, `Cc1cc2oc(C)c(C(=O)NC3CCNCC3(F)F)c2cc1OCc1cccnc1C(F)(F)F` (single isomer, unassigned) [179-En 1, N-(3,3-difluoropiperidin-4-yl)-2,6-dimethyl-5-((2-(trifluoromethyl)pyridin-3-yl)methoxy)benzo-furan-3-carboxamide] showed an IC50 of 1 to 20 µM.

Regarding `Cc1cc2oc(C)c(C(=O)NC3CCNCC3(F)F)c2cc1OCc1cccnc1C(F)(F)F` (single isomer, unassigned) [179-En 2, N-(3,3-difluoropiperidin-4-yl)-2,6-dimethyl-5-((2-(trifluoromethyl)pyridin-3-yl)methoxy)benzo-furan-3-carboxamide], the IC50 was more than 20 µM.

`Cc1oc2ccc(OCc3cccnc3C(F)(F)F)c(C#N)c2c1C(=O)NC1CCNCC1(F)F` (single isomer, unassigned) [191-En 1, 4-cyano-N-(3,3-difluoropiperidin-4-yl)-2-methyl-5-((2-(trifluoromethyl)pyridin-3-yl)methoxy) -benzofuran-3-carboxamide] registered an IC50 of more than 20 µM.

Compound `Cc1oc2cc(C#N)c(OCc3cccnc3C(F)(F)F)cc2c1C(=O)NC1CCNCC1(F)F` (single isomer, unassigned) [195-En 1, 6-cyano-N-(3,3-difluoropiperidin-4-yl)-2-methyl-5-((2-(trifluoromethyl)pyridin-3-yl)methoxy) -benzofuran-3-carboxamide] displayed a concentration for half-maximal inhibition (IC50) of more than 20 µM.

On to `Cc1oc2cc(C#N)c(OCc3cccnc3C(F)(F)F)cc2c1C(=O)NC1CCNCC1(F)F` (single isomer, unassigned) [195-En 2, 6-cyano-N-(3,3-difluoropiperidin-4-yl)-2-methyl-5-((2-(trifluoromethyl)pyridin-3-yl)methoxy) -benzofuran-3-carboxamide], for which the IC50 was more than 20 µM.

In turn, `Cc1oc2c(C#N)cc(OCc3cccnc3C(F)(F)F)cc2c1C(=O)NC1CCNCC1(F)F` (single isomer, unassigned) [196-En 1, 7-cyano-N-(3,3-difluoropiperidin-4-yl)-2-methyl-5-((2-(trifluoro-methyl)pyridin-3-yl)methoxy)benzofuran-3-carboxamide] yielded an IC50 of more than 20 µM.

As for `Cc1oc2c(C#N)cc(OCc3cccnc3C(F)(F)F)cc2c1C(=O)NC1CCNCC1(F)F` (single isomer, unassigned) [196-En 2, 7-cyano-N-(3,3-difluoropiperidin-4-yl)-2-methyl-5-((2-(trifluoro-methyl)pyridin-3-yl)methoxy)benzofuran-3-carboxamide], the IC50 was in the range of 1 to 20 µM.

For the compound `Cc1ncsc1COc1ccc2oc(C(F)F)c(C(=O)NC3CCN(CCO)C3=O)c2c1` (single isomer, unassigned) [198-En 1, 2-(difluoromethyl)-N-(1-(2-hydroxyethyl)-2-oxopyrrolidin-3-yl)-5-((4-methylthiazol-5-yl) -methoxy)benzofuran-3-carboxamide], the IC50 fell in the range of 1 to 20 µM.

Regarding `O=C(NC1CCNCC1(F)F)c1c(C(F)F)oc2ccc(OCc3cccnc3C(F)(F)F)cc12` (single isomer, unassigned) [199-En 1, 2-(difluoromethyl)-N-(3,3-difluoropiperidin-4-yl)-5-((2-(trifluoromethyl)pyridin-3-yl)methoxy) -benzofuran-3-carboxamide], the IC50 was less than 1 µM.

The same assay, now with this note: PS (50 μM) stimulated, cpds. 400-499.
Turning to `Cc1ncsc1COc1ccc2oc(C)c(C(=O)NC(CO)CN(C)C)c2c1` (single isomer, unassigned) [413-En 1, N-(1-(dimethylamino)-3-hydroxypropan-2-yl)-2-methyl-5-((4-methylthiazol-5-yl)methoxy)benzofuran-3-carboxamide], the IC50 was less than 1 µM.

Consider `Cc1ncc(COc2ccc3oc(C)c(C(=O)NC(Cn4cncn4)C(N)=O)c3c2)s1` (single isomer, unassigned) [432-En 1, N-(1-amino-1-oxo-3-(1H-1,2,4-triazol-1-yl)propan-2-yl)-2-methyl-5-((2-methylthiazol-5-yl)methoxy)benzofuran-3-carboxamide], for which the IC50 fell in the range of 1 to 20 µM.

For the compound `Cc1ncc(COc2ccc3oc(C)c(C(=O)NC(Cn4cncn4)C(N)=O)c3c2)s1` (single isomer, unassigned) [432-En 2, N-(1-amino-1-oxo-3-(1H-1,2,4-triazol-1-yl)propan-2-yl)-2-methyl-5-((2-methylthiazol-5-yl)methoxy)benzofuran-3-carboxamide], the half-maximal inhibitory concentration (IC50) was less than 1 µM.

Regarding `Cc1ncc(COc2ccc3oc(C)c(C(=O)NC(COC(F)F)C(N)=O)c3c2)s1` (single isomer, unassigned) [447-En 1, N-(1-amino-3-(difluoromethoxy)-1-oxopropan-2-yl)-2-methyl-5-((2-methylthiazol-5-yl)methoxy)benzofuran-3-carboxamide], the IC50 was less than 1 µM.

The assay is the same for the next values; noted with them: PS (50 μM) stimulated, cpds. 500-599.
Regarding `Cc1ncc(COc2ccc3oc(C)c(C(=O)NC4(CO)CCNC4)c3c2)s1` (single isomer, unassigned) [530-En 1, N-(3-(hydroxymethyl)pyrrolidin-3-yl)-2-methyl-5-((2-methylthiazol-5-yl)methoxy)benzofuran-3-carboxamide], the IC50 is 1 to 20 µM.

(Values after patent US12209081B2 (Katholieke Universiteit Leuven, priority 2020, dated 2025).)
